Reference: patent US20020193441A1, “Prostanoid therapies for the treatment of glaucoma” (priority 2001, published 2002)

Tests used:
[1] = tested on: patients with open-angle glaucoma or ocular hypertension; assay: Clinical studies of travoprost (six, nine and twelve month studies pooled): IOP in black v. non-black patients; assay type: in vivo, human; details: for Mean IOP (overall) / IOP change from baseline: combined over visit and time of day; for Mean IOP (overall): pooled; for IOP change from baseline: three studies pooled, intent-to-treat
Description: The ability of travoprost to lower IOP was evaluated in three separate clinical trials, each involving the evaluation of both a low (0.0015%) and a high (0.004%) concentration composition. The studies differed in length, one lasting six months (hereinafter “six month study”), one lasting nine months (hereinafter “nine month study”) and one lasting twelve months (hereinafter “twelve month study”). The twelve month study was a triple-masked, parallel group, primary therapy study of the safety and efficacy of travoprost 0.0015% and travoprost 0.004% compared to timolol 0.5% and latanoprost 0.005% in patients with open-angle glaucoma or ocular hypertension. The term triple-masked is synonymous with the ICH E3 definition of double-blind. Patients of any race and either sex with open-angle glaucoma (with or without dispersion or pseudoexfoliation component) or ocular hypertension were qualified to participate in the studies. Pursuant to the study protocol, one group received travoprost 0.0015% topical ocular solution and dropped one drop once-daily in each eye at 8:00 p.m. A second group received travoprost 0.004% topical ocular solution and dropped one drop, once-daily in each eye at 8:00 p.m. A third group received vehicle only (placebo) and dropped one drop, once-daily in each eye at 8:00 a.m. A fourth group received timolol 0.5% topical ocular solution and dropped one drop, twice-daily in each eye at 8:00 a.m. and 8:00 p.m. A fifth group received latanoprost 0.005% topical ocular solution and dropped one drop, once-daily in each eye at 8:00 p.m. For evaluation purposes, the primary efficacy variable was mean intraocular pressure (IOP) in patient's worse eye. Safety was based on ocular and systemic parameters including hyperemia, flare, iris color, visual acuity, slit-lamp examinations, endothelial cell density, pachymetry, blood pressure and pulse, laboratory assessments, dilated fundus examinations, automated perimetry and adverse events. Repeated measures analysis of variance was used to test differences among treatment groups and to calculate 95% confidence limits about the differences between groups. The six month study was a triple-masked, parallel group, primary therapy study of the safety and efficacy of travoprost 0.0015% and travoprost 0.004% compared to timolol 0.5% in patients with open-angle glaucoma or ocular hypertension. The term triple-masked is synonymous with the ICH E3 definition of double-blind. Patients of any race and either sex with open-angle glaucoma (with or without dispersion or pseudoexfoliation component) or ocular hypertension were qualified to participate in the studies. Pursuant to the study protocol, one group received travoprost 0.0015% topical ocular solution and dropped one drop once-daily in each eye at 8:00 p.m. A second group received travoprost 0.004% topical ocular solution and dropped one drop, once-daily in each eye at 8:00 p.m. A third group received vehicle only (placebo) and dropped one drop, once-daily in each eye at 8:00 a.m. A fourth group received timolol 0.5% topical ocular solution and dropped one drop, twice-daily in each eye at 8:00 a.m. and 8:00 p.m. For evaluation purposes, the primary efficacy variable was mean intraocular pressure (IOP) in patient's worse eye. Safety was based on ocular and systemic parameters including hyperemia, aqueous cells and flare, iris pigmentation, visual acuity, slit-lamp biomicroscopy, blood pressure and pulse, laboratory assessments, dilated fundus examinations, automated perimetry and adverse events. Repeated measures analysis of variance was used to test differences among treatment groups and to calculate 95% confidence limits about the differences between groups. The nine month study was a triple-masked, parallel group, primary therapy study of the safety and efficacy of travoprost 0.0015% and travoprost 0.004% compared to timolol 0.5% and latanoprost 0.005% in patients with open-angle glaucoma or ocular hypertension. […]

[2] = tested on: black and non-black patients; assay: Dose-response evaluations: travoprost concentration and IOP response in black and non-black patients; assay type: in vivo, human
Source text: Dose-response studies were undertaken to evaluate the relationship between travoprost and IOP response in black and non-black patients. […] FIG. 1 depicts the relationship between log concentration and IOP for black patients versus non-black patients. For black patients, IOP went from approximately 28 mmHg at a concentration of 0.00009% travoprost to approximately 18.5 mmHg at 0.004% travoprost. For non-black patients, IOP went from approximately 23 mmHg at 0.00009% travoprost to approximately 18 mmHg at 0.004% travoprost. FIG. 2 depicts the relationship between log concentration and IOP change. IOP change went from approximately −1 mmHg to approximately −7.75 mmHg for black patients and from approximately −3.25 mmHg to approximately −7.25 mmHg for non-black patients. FIGS. 1 and 2 depict a comparison of IOP or IOP change to log concentration to illustrate the significance of the dose-response difference between the two groups. FIGS. 3 and 4 depict the same relationships using actual concentrations.

[3] = travoprost 0.0015%, black patients
[4] = travoprost 0.0015%, non-black patients
[5] = travoprost 0.004%, black patients
[6] = travoprost 0.004%, non-black patients

CC(C)OC(=O)CCC/C=C\C[C@@H]1[C@@H](/C=C/[C@@H](O)COc2cccc(C(F)(F)F)c2)[C@H](O)C[C@@H]1O [Travoprost, travoprost]
Further IOP reduction when dose increased from 0.0015% to 0.004% ([1]; blacks): statistically significant further reduction | Further IOP reduction when dose increased from 0.0015% to 0.004% ([1]; caucasians (non-blacks)): no further reduction | Subgroup difference in mean IOP between black and non-black patients (analysis of variance) ([1]; travoprost 0.0015% analysis): No statistically significant subgroup differences | Difference in IOP change from baseline between blacks and non-blacks ([1]; travoprost 0.0015% dose): no significant difference | Mean IOP (combined over visit) ([1]; travoprost 0.0015%, black patients, 4 p.m.): 17.8 mmHg | Mean IOP (combined over visit) ([1]; travoprost 0.0015%, black patients, 8 a.m.): 19.6 mmHg | Mean IOP (combined over visit) ([1]; travoprost 0.0015%, black patients, 10 a.m.): 18.4 mmHg | Mean IOP (overall) [1, 3]: 18.6 mmHg | IOP change from baseline [1, 3]: −7.1 mmHg | Mean IOP (combined over visit) ([1]; travoprost 0.0015%, non-black patients, 4 p.m.): 18.2 mmHg | Mean IOP (combined over visit) ([1]; travoprost 0.0015%, non-black patients, 8 a.m.): 19.4 mmHg | Mean IOP (combined over visit) ([1]; travoprost 0.0015%, non-black patients, 10 a.m.): 18.5 mmHg | Mean IOP (overall) [1, 4]: 18.7 mmHg | IOP change from baseline [1, 4]: −7.1 mmHg | Subgroup difference in mean IOP between black and non-black patients (analysis of variance) ([1]; travoprost 0.004% analysis): significant subgroup difference | Subgroup difference in mean IOP, black lower than non-black ([1]; travoprost 0.004%, 4 PM): 1.1 mmHg | Subgroup difference in mean IOP, black lower than non-black ([1]; travoprost 0.004%, 8 AM): 0.8 mmHg | Subgroup difference in mean IOP, black lower than non-black ([1]; travoprost 0.004%, 10 AM): 1.5 mmHg | Mean IOP (combined over visit) ([1]; travoprost 0.004%, black patients, 4 p.m.): 16.8 mmHg | Mean IOP (combined over visit) ([1]; travoprost 0.004%, black patients, 8 a.m.): 18.6 mmHg | Mean IOP (combined over visit) ([1]; travoprost 0.004%, black patients, 10 a.m.): 16.8 mmHg | Mean IOP (overall) [1, 5]: 17.4 mmHg | IOP change from baseline [1, 5]: −8.1 mmHg | Difference in mean IOP, black lower than non-black ([1]; travoprost 0.004%, combined (8 a.m., 10 a.m., and 4 p.m.) results): up to 1.5 mmHg | Mean IOP (combined over visit) ([1]; travoprost 0.004%, non-black patients, 4 p.m.): 18.0 mmHg | Mean IOP (combined over visit) ([1]; travoprost 0.004%, non-black patients, 8 a.m.): 19.3 mmHg | Mean IOP (combined over visit) ([1]; travoprost 0.004%, non-black patients, 10 a.m.): 18.3 mmHg | Mean IOP (overall) [1, 6]: 18.5 mmHg | IOP change from baseline [1, 6]: −7.5 mmHg | Difference in mean IOP, black lower than non-black ([1]; travoprost 0.004%, overall result): 1.1 mmHg | IOP (FIG. 1) ([2]; 0.00009% travoprost, black patients): approximately 28 mmHg | IOP (FIG. 1) ([2]; 0.00009% travoprost, non-black patients): approximately 23 mmHg | IOP (FIG. 1) ([2]; 0.004% travoprost, black patients): approximately 18.5 mmHg | IOP (FIG. 1) ([2]; 0.004% travoprost, non-black patients): approximately 18 mmHg | Dose-response based on comparison slopes ([2]; black patients compared with non-black patients): much more pronounced dose-response | IOP change (FIG. 2) ([2]; black patients, high end of concentration range ('to')): approximately −7.75 mmHg | IOP change (FIG. 2) ([2]; black patients, low end of concentration range ('from')): approximately −1 mmHg | Mean IOP versus dose ([2]; both race subgroups): reduced significantly with increasing dose | IOP change (FIG. 2) ([2]; non-black patients, high end of concentration range ('to')): approximately −7.25 mmHg | IOP change (FIG. 2) ([2]; non-black patients, low end of concentration range ('from')): approximately −3.25 mmHg
